Experimental data from PMC7606612, “Identification of HMGA2 inhibitors by AlphaScreen-based ultra-high-throughput screening assays” (Scientific Reports, 2020).

Columns and labels:
[1] = target: T1, bromodomain-containing protein 4 (BRD4) (Homo sapiens, UniProt O60885); assay: BRD4 AlphaScreen counterscreen assay (H4 peptide binding to BRD4); details: counter screen, Fig. 3c
T1 construct: His-tagged BRD4-BD1 was purchased from BPS Bioscience (#31042); purchased BPS Bioscience 31042
Method: (§1) In this study, we also developed a LANCE time-resolved fluorescence energy transfer (TR-FRET) assay as a secondary assay for our screening. The His-tagged HMGA2 and biotinylated oligomer FL814 were linked to Europium-labeled anti-6 × His antibody and APC-labeled streptavidin, respectively. A series of DNA binding studies were performed to determine the optimal conditions for the secondary Assay (Fig. S2). After these experiments, 12.5 nM of FL814 and 62.5 nM of HMGA2 were chosen for the assay, which is the same for the primary assay. The assay tolerated up to 0.25% DMSO without any significant change in signal (Fig. S2c). For a counterscreen assay to exclude those compounds that nonspecifically bind to the protein surface, an AlphaScreen assay of H4 peptide binding to bromodomain-containing protein 4 (BRD4) was adopted (Fig. S2e). Since we are looking for compounds with anti-metastasis or anti-obesity activities, compounds with high levels of cytotoxicity are undesirable. […]
Using a Labcyte Echo 555 acoustic dispenser 5 nL of DMSO were added to columns 1–4 and 45–48 of a white 1536 well plate, while 5 nL of 2 mM compounds in DMSO were added to columns 5–44. […] After an overnight incubation at room temperature the plates were read on a Perkin Elmer Envision multimode plate reader in AlphaScreen mode.

[2] = system: human epidermoid carcinoma cell line, A431; assay: Cytotoxicity / cell viability assay (ATPlite); assay type: cell-based; details: human A-431 cells, 48 h
Method: as §1
A-431 cells were grown in media (DMEM + 10% FBS + 1 × Penicillin/Streptomycin + 2 mM L-glutamine) at 37 °C in a humidified incubator with 5% CO2 to 70% confluency. […] After 10 min the plates were read using a Perkin Elmer Viewlux multimode plate reader in luminescence mode.

[3] = target: T2, HMGA2-DNA interactions (Mus musculus, UniProt P52927); assay: Protein-DNA interaction ELISA (PDI-ELISA) assay; assay type: binding, mammalian; details: inhibition of HMGA2-DNA interactions, PDI-ELISA
T2 construct: made in house
T2 sequence (P52927 2-108 limits assumed): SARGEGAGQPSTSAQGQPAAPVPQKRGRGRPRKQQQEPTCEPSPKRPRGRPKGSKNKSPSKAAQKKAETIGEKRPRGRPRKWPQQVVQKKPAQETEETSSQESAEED
Excerpt: The PDI-ELSA assays were described previously[33] and used to determine the inhibition IC50 against HMGA2-DNA interactions. The apparent inhibitory IC50 values were obtained using the following equation: y=min+(max-min/1+10^((x-logIC50)×Hillslope) , where x, y, max, and min represent the inhibitor’s concentration, the inhibition level, the maximum inhibition value, and the minimum inhibition value, respectively.

[4] = system: BTSC#83; assay: Light microscopy of morphology / differentiation, BTSC#83; assay type: cell-based; details: 100 µM and 200 µM, 6 days
[5] = system: BTSC#30p; assay: Light microscopy of morphology / differentiation, BTSC#30p; assay type: cell-based; details: 100 µM and 200 µM, 6 days
[6] = system: BTSC#83; assay: Western blotting and qRT-PCR expression analysis, BTSC#83; assay type: cell-based
Method: The single-cell suspension was obtained by mechanical disaggregation of the spheres and total proteins were extracted 48 h later, as previously described. After separation by SDS–polyacrylamide gel electrophoresis, proteins were blotted on nitrocellulose membranes (GE Healthcare Europe Gmb) and hybridized with the following antibodies: anti-HMGA1, anti-HMGA2 (Genetex) or affinity-purified anti-HMGA2, anti-α-actin (SantaCruz Biotechnologies). The single-cell suspension was obtained by mechanical disaggregation of the spheres and RNA was extracted 48 h later, by using Direct-zol RNA MiniPrep (Zymo Research). One μg of RNA was retrotranscribed, by using QuantiTect® Reverse Transcription Kit (Qiagen) and qRT-PCR was performed as described. The 2^–ΔΔCt formula was used to calculate the differential gene expression.

[7] = system: anaplastic thyroid carcinoma cell line 8505c; assay: ID2 mRNA expression in 8505c cells; assay type: cell-based, human; details: 200 and 400 µM
Excerpt: The role of HMGA1 and HMGA2 in regulating ID2 transcription was confirmed by analyzing its expression in mouse embryonic fibroblasts (MEFs) knock-out for HMGA1, HMGA2, and the A1/A2 double mutant, respectively. […] We identified two AT-rich regions, hereafter indicated as “region A” and “region B”, in the human ID2 promoter, containing the HMGA2 consensus sequence[26] (Table S2) for our ChIP experiments. Due to availability, the high proliferation rate, and the expression of HMGA proteins, the anaplastic thyroid carcinoma cell line 8505c was used.
The single-cell suspension was obtained by mechanical disaggregation of the spheres and RNA was extracted 48 h later, by using Direct-zol RNA MiniPrep (Zymo Research). One μg of RNA was retrotranscribed, by using QuantiTect® Reverse Transcription Kit (Qiagen) and qRT-PCR was performed as described. The 2^–ΔΔCt formula was used to calculate the differential gene expression.

Cc1ccc(C(=O)Nc2ccc(S(=O)(=O)O)c3cc(S(=O)(=O)O)cc(S(=O)(=O)O)c23)cc1NC(=O)c1cccc(NC(=O)Nc2cccc(C(=O)Nc3cc(C(=O)Nc4ccc(S(=O)(=O)O)c5cc(S(=O)(=O)O)cc(S(=O)(=O)O)c45)ccc3C)c2)c1 [suramin]
inhibition of H4 peptide binding to BRD4 [1]: did not inhibit H4 peptide binding to BRD4
cytotoxicity [2]: not cytotoxic
IC50 [3]: 2780 ± 100 nM
cell morphology / induction of differentiation [4]: adhere to the bottom of the well and extend neurite-like structures
cell morphology / induction of differentiation [5]: acquire flat epithelial morphology
expression of HMGA1 ([6]; Western blotting and qRT-PCR): slightly reduced
expression of HMGA2 ([6]; Western blotting and qRT-PCR): slightly reduced
expression of SNAIL ([6]; qRT-PCR, 100 µM for 48 h): significantly reduced
mRNA expression level of ID2 [7]: significantly decreased
